Reference: US9676820B2, “Method for inhibiting proliferation of high LIX1L-expressing tumor cell, and tumor cell proliferation-inhibiting peptide” (National University Corporation Hamamatsu University School …, priority 2013, dated 2017)

What was measured:
Format in all cases: cell-based
293 FLG/LIX1L = assay: Colony formation assay (agarose), 293 FLG/LIX1L cells (Example 9); conditions: 293 FLG/LIX1L/PY136 cells, 14 days
Method: In the colony formation assay, the 293 FLG cells, the 293 FLG/LIX1L cells, and the 293 FLG/LIX1L/PY136 cells were respectively mixed in 10% FCS-containing DMEM culture media, to which 0.4% agarose was added, and the mixtures were gently placed on 0.6% agarose- and 10% FCS-containing DMEM culture media for culturing for 14 days. Thereafter, the influence of LIX1L and PY136 on cell proliferation was evaluated by counting the number of colonies in each well using an optical microscope (manufactured by Zeiss).

KATO-III strain = assay: MTT assay, KATO-III strain; conditions: MTT assay, 72 hours
Method: (§1) Specifically, first, cells plated in a 96-well microplate such that the density thereof became 5×10^3 cells/well were cultured for one night in a culture solution having the same composition as those in the reference examples. Thereafter, the culture solution was exchanged with 100 μL of a culture solution of which the concentration of peptides is 0 μM to 100 μM for culturing for 72 hours. After the culturing, an MTT-containing PBS solution was added to the culture solution, and the mixture was incubated for 4 hours. Then, formazan which was generated by putting 100 μL of isopropanol (containing 34 (v/v) % of hydrochloric acid) into each of the wells was dissolved. The absorbance of each of the wells of the microplate at 570 nm was measured using a microplate reader. As controls, culturing was performed in the same manner except that no peptide was added to the strains, an MTT assay was performed thereon, and the absorbance at 570 nm was measured (untreated).

RPMI8226 strain = assay: Viable cell counts (Trypan blue staining), RPMI8226 strain; conditions: 5 μM peptide, up to 72 hours, vs untreated
Method: Specifically, cells plated such that the density thereof became 1×10^4 cells/3.5 cm well for one plate (6 wells/plate) for each cell strain were cultured for one night in a culture solution having the same composition as those of the culture solutions described in the reference examples. After culturing of 1 well out of the 6 wells was completed, Trypan blue staining was performed on the 1 well, and viable cell counts were counted. The remaining 5 wells were cultured after exchanging the culture solution with a liquid mixture of a Lipofectamine (registered trademark) reagent (12.5 μL/well) and a culture solution (2 mL/well) of which the shRNA concentration became 2.5 μg/well. Then, Trypan blue staining was performed on 1 well 24 hours after the exchange of a culture medium, 1 well 48 hours after the exchange of a culture medium, and the remaining 1 well 72 hours after the exchange of a culture medium, and the viable cell counts were counted. As a control, the viable cell counts were measured (untreated) by performing the culturing similarly to the above except that a culture medium was exchanged with a culture solution to which no shRNA was added. […]

HL-60 strain = assay: Viable cell counts (Trypan blue staining), HL-60 strain; conditions: 5 μM peptide, vs untreated
Method: Specifically, cells plated such that the density thereof became 1×10^4 cells/3.5 cm well for one plate (6 wells/plate) for each cell strain were cultured for one night in a culture solution having the same composition as those of the culture solutions described in the reference examples. After culturing of 1 well out of the 6 wells was completed, Trypan blue staining was performed on the 1 well, and viable cell counts were counted. The remaining 5 wells were cultured after exchanging the culture solution with a liquid mixture of a Lipofectamine (registered trademark) reagent (12.5 μL/well) and a culture solution (2 mL/well) of which the shRNA concentration became 2.5 μg/well. Then, Trypan blue staining was performed on 1 well 24 hours after the exchange of a culture medium, 1 well 48 hours after the exchange of a culture medium, and the remaining 1 well 72 hours after the exchange of a culture medium, and the viable cell counts were counted. As a control, the viable cell counts were measured (untreated) by performing the culturing similarly to the above except that a culture medium was exchanged with a culture solution to which no shRNA was added.
Specifically, the viable cell counts were measured after culturing the cells similarly to Example 1 except that a 5 μM culture solution containing a control peptide, a peptide 1, or a peptide 2 was used instead of the culture solution (2 mL/well) of which the shRNA concentration was 2.5 μg/well. The viable cell counts were measured (untreated) by performing the culturing similarly to Example 1 using a culture solution containing no peptide 2, as a control.

MKN45 strain = assay: MTT assay, MKN45 strain
Method: as §1, with “Thereafter, the culture solution was exchanged with 100 μL of a culture solution of which the concentration of peptides is 0 μM to 100 μM for culturing for 72 hours.” left out
(§2) In the method for measuring the viable cell counts, cells were cultured for 3 days similarly to Example 1 except that a 25 μM (10 μM for an HL-60 strain, a K562 strain, and a U937 strain) culture solution containing a control peptide or a peptide 1 was used, and the viable cell counts were measured. As a comparison, culturing was performed similarly to the above using a culture solution containing no peptide, and the viable cell counts were measured (untreated).
(§3) In addition, in the method for performing an MTT assay, cells were cultured for 72 hours similarly to Example 2 except that a peptide to be added to a strain was set to a control peptide or a peptide 1 at 25 μM (10 μM for an HL-60 strain, a K562 strain, and a U937 strain), an MTT assay was performed thereon, and the absorbance at 570 nm was measured. As a comparison, culturing was performed similarly to the above using a culture solution containing no peptide, and the MTT assay was performed thereon (untreated).
(§4) Specifically, the cells were cultured for 72 hours similarly to Example 2 except that a peptide to be added to a cell was set to a peptide 1, 2, 5, or 6, MTT assays were performed thereon, and the absorbance at 570 nm was measured. As a comparison, culturing was performed similarly to the above using a culture solution containing no peptide, and the MTT assay was performed thereon (untreated).
Specifically, the cells were cultured for 72 hours similarly to Example 2 except that peptides to be added to cell strains were set to peptides 7 to 14, MTT assays were performed thereon, and the absorbance at 570 nm was measured. […]
Specifically, the cells were cultured for 72 hours similarly to Example 2 except that a peptide to be added to a cell strain was set to a peptide 15 or 16, an MTT assay was performed thereon, and the absorbance at 570 nm was measured. […]

K562 strain = assay: MTT assay, K562 strain
Method: as §1
Specifically, the cells were cultured for 72 hours similarly to Example 2 except that a peptide to be added to a cell strain was set to peptide 1, 3, or 4, or a control peptide, an MTT assay was performed thereon, and the absorbance at 570 nm was measured.
as §2, §3, §4
as §4, with “that peptides” for “that a peptide”, “to” for “to a”, “cell strains were” for “cell was”, “to peptides 7 to 14,” for “to a peptide 1, 2, 5, or 6,”
Specifically, the cells were cultured for 72 hours similarly to Example 2 except that a peptide to be added to a cell strain was set to a peptide 15 or 16, an MTT assay was performed thereon, and the absorbance at 570 nm was measured. As a comparison, culturing was performed similarly to the above using a culture solution containing no peptide, and the MTT assay was performed thereon (untreated).

[1] = 72 hours, peptide concentrations up to 250 μM

Structure (SMILES): CC(C)[C@H](NC(=O)[C@H](Cc1ccc(O)cc1)NC(=O)[C@H](CS)NC(=O)[C@@H](NC(=O)[C@H](Cc1ccc(O)cc1)NC(=O)[C@@H]1CCCN1C(=O)[C@@H]1CCCN1C(=O)[C@H](CO)NC(=O)[C@H](CC(N)=O)NC(=O)[C@H](CO)NC(=O)[C@@H]1CCCN1C(=O)CCCCCNC(=O)[C@H](CCCNC(=N)N)NC(=O)[C@H](CCCNC(=N)N)NC(=O)[C@H](CCCNC(=N)N)NC(=O)[C@H](CCC(N)=O)NC(=O)[C@H](CCCNC(=N)N)NC(=O)[C@H](CCCNC(=N)N)NC(=O)[C@H](CCCCN)NC(=O)[C@H](CCCCN)NC(=O)[C@H](CCCNC(=N)N)NC(=O)CNC(=O)[C@@H](N)Cc1ccc(O)cc1)C(C)C)C(N)=O [peptide 1, YGRKKRRQRRR-X-PSNSPPYVCYV-NH2]
- formation of colonies (colony formation assay) (293 FLG/LIX1L): significantly inhibited
- concentration at which a dominant effect of inhibiting the cell proliferation was recognized (KATO-III strain): greater than or equal to 25 μM
- viable cell counts (RPMI8226 strain): the same as those in the untreated case
- viable cell counts (HL-60 strain; after 72 hours): very small
- viable cell counts (HL-60 strain; after culturing for 24 hours): decreased
- cell proliferation (MTT assay, absorbance at 570 nm) (MKN45 strain; [1]): inhibited
- cell proliferation (viable cell counts and MTT assay) (MKN45 strain; peptide 25 μM, 3 days / 72 hours): inhibited
- cell proliferation (MTT assay, absorbance at 570 nm) (K562 strain; [1]): inhibited
- concentration at which a dominant effect of inhibiting the cell proliferation was recognized (K562 strain; MTT assay, 72 hours): greater than or equal to 6.25 μM
- absorbance at 570 nm (MTT assay), influence on cell proliferation (K562 strain; peptide 0 μM to 100 μM, 72 hours): inhibited
- cell proliferation (viable cell counts and MTT assay) (K562 strain; peptide 10 μM, 3 days / 72 hours): inhibited
